Laboratory results as given in patent US5716943A, “Phosphinic acid derivatives with metallopeptidase inhibitory activity” (Zambon Group. S.p.A., priority 1995, dated 1998).

Key:
ACE = biological target: T1, ACE (Oryctolagus cuniculus, UniProt P12822); assay: ACE-inhibitory activity, FAPGG substrate, absorbance at 340 nm; format: biochemical; conditions: ACE purified by lung rabbit; FAPGG 0.8 mM; 37° C.; compounds of formula I tested as lithium salts
T1 construct: purchased SIGMA; host or cells: rabbit lung
T1 sequence (P12822 34-1310): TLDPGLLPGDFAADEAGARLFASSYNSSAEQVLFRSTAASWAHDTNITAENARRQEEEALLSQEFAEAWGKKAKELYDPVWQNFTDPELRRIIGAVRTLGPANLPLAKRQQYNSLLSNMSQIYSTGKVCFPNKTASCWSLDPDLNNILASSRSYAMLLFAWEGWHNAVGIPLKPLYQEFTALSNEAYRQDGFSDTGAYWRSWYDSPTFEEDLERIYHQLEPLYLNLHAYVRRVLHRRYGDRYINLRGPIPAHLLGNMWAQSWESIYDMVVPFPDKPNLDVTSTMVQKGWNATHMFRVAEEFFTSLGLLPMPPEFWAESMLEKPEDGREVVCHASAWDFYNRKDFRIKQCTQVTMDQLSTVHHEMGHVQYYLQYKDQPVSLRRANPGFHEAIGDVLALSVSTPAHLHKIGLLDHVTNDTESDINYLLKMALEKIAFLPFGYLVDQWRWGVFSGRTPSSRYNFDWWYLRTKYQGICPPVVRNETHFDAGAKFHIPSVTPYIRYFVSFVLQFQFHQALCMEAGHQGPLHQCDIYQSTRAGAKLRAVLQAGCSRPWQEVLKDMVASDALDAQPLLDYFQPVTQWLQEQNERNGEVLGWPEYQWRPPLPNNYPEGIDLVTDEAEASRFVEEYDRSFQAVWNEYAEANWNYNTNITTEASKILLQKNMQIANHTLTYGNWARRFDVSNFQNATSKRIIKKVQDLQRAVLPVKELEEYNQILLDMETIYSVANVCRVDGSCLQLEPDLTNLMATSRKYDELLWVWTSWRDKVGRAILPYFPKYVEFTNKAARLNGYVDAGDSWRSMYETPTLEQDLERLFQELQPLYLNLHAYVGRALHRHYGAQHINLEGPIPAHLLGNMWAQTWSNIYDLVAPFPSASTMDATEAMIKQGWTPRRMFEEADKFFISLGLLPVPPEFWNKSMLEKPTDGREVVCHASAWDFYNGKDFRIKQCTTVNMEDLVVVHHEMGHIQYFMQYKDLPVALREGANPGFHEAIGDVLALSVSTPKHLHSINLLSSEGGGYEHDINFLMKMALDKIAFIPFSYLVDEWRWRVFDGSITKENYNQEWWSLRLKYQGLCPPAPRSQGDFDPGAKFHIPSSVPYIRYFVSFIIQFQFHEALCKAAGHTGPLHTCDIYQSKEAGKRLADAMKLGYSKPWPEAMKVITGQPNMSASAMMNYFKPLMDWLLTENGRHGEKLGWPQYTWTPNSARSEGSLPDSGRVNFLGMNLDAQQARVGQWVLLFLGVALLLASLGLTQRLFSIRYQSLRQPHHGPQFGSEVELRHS
Protocol: b) ACE-inhibitory activity
50 μM of ACE (250 mU/ml purified by lung rabbit, EC 3.4.15.1 SIGMA) were preincubated with 50 μl of the compound of formula I or of the comparison compound in thermostated cuvettes at 37° C.
The reaction was started by adding furylacryloylphenylalanylglycylglycine 0.8 mM (FAPGG-SIGMA).
Contemporaneously, by using a Beckman DU-50 spectrophotometer provided with a program for calculating delta A/minutes and regression coefficients of the enzyme kinetics curves, the absorbance at 340 10^-9 m was recorded in continuo for 5 minutes.
The percentage of enzyme inhibition in the preparations treated with the compounds of formula I or with the comparison compounds with respect to the untreated preparations was expressed as IC50 (nM) value.
(§1) The compounds of formula I were tested in the form of lithium salts.

NEP = biological target: T2, NEP (Rattus norvegicus, UniProt P07861); assay: NEP-inhibitory activity in rat kidney cortex membranes, [3H][Leu5]-enkephaline substrate; format: biochemical; conditions: [3H][Leu5]-enkephaline 15 nM, 20 minutes at 30° C., pH 7.4, compounds of formula I tested as lithium salts
T2 construct: evaluated in rat kidney cortex membranes; from tissue; host or cells: kidney cortex membranes of male Sprague-Dawley rats
T2 sequence (P07861 1-750): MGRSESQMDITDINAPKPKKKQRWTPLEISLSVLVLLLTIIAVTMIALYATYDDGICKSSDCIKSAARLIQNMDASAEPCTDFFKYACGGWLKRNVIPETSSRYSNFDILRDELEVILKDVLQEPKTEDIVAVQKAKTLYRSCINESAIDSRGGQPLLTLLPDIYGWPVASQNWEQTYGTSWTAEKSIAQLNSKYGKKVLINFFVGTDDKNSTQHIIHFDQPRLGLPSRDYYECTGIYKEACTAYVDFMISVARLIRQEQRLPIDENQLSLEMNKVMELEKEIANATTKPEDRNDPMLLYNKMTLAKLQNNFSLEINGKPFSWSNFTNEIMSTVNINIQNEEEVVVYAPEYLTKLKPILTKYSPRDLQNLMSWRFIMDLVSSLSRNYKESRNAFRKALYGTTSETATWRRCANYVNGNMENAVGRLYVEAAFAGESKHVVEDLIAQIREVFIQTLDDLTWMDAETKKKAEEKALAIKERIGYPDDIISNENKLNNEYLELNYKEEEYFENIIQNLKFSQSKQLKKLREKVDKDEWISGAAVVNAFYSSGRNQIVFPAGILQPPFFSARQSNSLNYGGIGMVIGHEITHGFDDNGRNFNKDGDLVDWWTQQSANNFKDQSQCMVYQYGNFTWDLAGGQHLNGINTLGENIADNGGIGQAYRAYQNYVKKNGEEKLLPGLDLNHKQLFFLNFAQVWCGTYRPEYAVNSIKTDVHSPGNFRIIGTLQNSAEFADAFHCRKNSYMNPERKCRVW
Protocol: a) NEP-inhibitory activity
The NEP-inhibitory activity was evaluated in rat kidney cortex membranes prepared according to the procedure described by T. Maeda et al. in Biochim biophys. Acta 1983, 731 (1), 115-120.
By working at 0°-4° C. kidneys were removed from male Sprague-Dawley rats weighing approximately 300 g.
Kidney cortex was carefully dissected, finely minced and suspended in a homogenization buffer (10 mM sodium phosphate pH 7.4 containing 1 mM MgCl2, 30 mM NaCl, 0.02% NaN3) 1:15 weight/volume.
The tissue was then homogenized for 30 seconds by using an Ultra-Turrax homogenizer.
Approximately 10 ml of homogenate were layered over 10 ml of sucrose (41% weight/volume) and centrifuged at 31200 rpm for 30 minutes at 4° C. in a fixed angle rotor.
The membranes were collected from the buffer/sucrose interface, washed twice with 50 mM TRIS/HCl buffer (pH 7.4) and resuspended into the same buffer for storage.
The membranes were stored in small aliquots at -80° C. until use.
The NEP-inhibitory activity was evaluated according to the method described by C. Llorens et al., in Eur. I. Pharmacol., 69, (1981), 113-116, as reported hereinafter.
Aliquots of the membrane suspension prepared as above described (concentration 5 μg/ml of proteins) were preincubated in the presence of an aminopeptidase inhibitor (Bestatin--1 mM) for 10 minutes at 30° C.
[^3 H][Leu^5 ]-enkephaline (15 nM) and buffer TRIS/HCl pH 7.4 (50 mM) were added in order to obtain a final volume of 100 μl.
Incubation (20 minutes at 30° C.) was stopped by adding HCl 0.1 M (100 μl).
The formation of the metabolite [^3 H]Tyr-Gly-Gly was quantified, after separation of the unreacted substrate by chromatography on polystirene columns (Porapak Q), by measuring the relative radioactivity through liquid scintillation.
The percentage of inhibition of the metabolite formation in the membrane preparations treated with the compounds of formula I and with the comparative compounds with respect to the untreated membrane preparations was expressed as IC50 (nM) value.
as §1

COCCOCC(CC1(C(=O)N[C@H]2CC[C@@H](C(=O)O)CC2)CCCC1)C(=O)O (relative stereo) [Candoxatrilat, 3-[1-[(Cis-4-carboxycyclohexyl)carbamoyl]cyclopentyl]-2-(2-methoxyethoxymethyl)-propionic acid, reference compound]
ACE-inhibitory activity IC50 (nM) (ACE): not active
IC50 (NEP): 160 nM

C[C@H](CS)C(=O)N1CCC[C@H]1C(=O)O [Captopril, reference compound]
NEP-inhibitory activity IC50 (nM) (NEP): not active

CC(C)CC(CP(=O)(O)CNC(=O)OCc1ccccc1)C(=O)N[C@@H](Cc1ccc(-c2ccccc2)cc1)C(=O)O (stereo partly drawn) [Compound 2, N-[3-[(benzyloxycarbonylaminomethyl)(hydroxy)phosphinyl]-2-isobutyl-propionyl]-(1,1'-biphenyl-4-yl)-L-alanine]
IC50 (ACE): 6.4 nM
IC50 (NEP): 36 nM

O=C(NCP(=O)(O)CC(Cc1ccccc1)C(=O)N[C@@H](Cc1ccc(-c2ccccc2)cc1)C(=O)O)OCc1ccccc1 (stereo partly drawn) [Compound 3, N-[3-[(benzyloxycarbonylaminomethyl)(hydroxy)phosphinyl]-2-benzyl-propionyl]-(1,1'-biphenyl-4-yl)-L-alanine]
IC50 (ACE): 30 nM
IC50 (NEP): 252 nM

O=C(NCP(=O)(O)CC(Cc1cccs1)C(=O)N[C@@H](Cc1ccc(-c2ccccc2)cc1)C(=O)O)OCc1ccccc1 (stereo partly drawn) [Compound 4, N-[3-[(benzyloxycarbonylaminomethyl)(hydroxy)phosphinyl]-2-(2-thienylmethyl)propionyl]-(1,1'-biphenyl-4-yl)-L-alanine]
IC50 (ACE): 12 nM
IC50 (NEP): 335 nM

CC(C)CC(CP(=O)(O)CNC(=O)OCc1ccccc1)C(=O)N[C@@H](Cc1ccc(-c2nccs2)cc1)C(=O)O (stereo partly drawn) [Compound 5, N-[3-[(benzyloxycarbonylaminomethyl)(hydroxy)phosphinyl]-2-isobutyl-propionyl]-[4-(2-thiazolyl)-phenyl]-L-alanine]
IC50 (ACE): 25 nM
IC50 (NEP): 48.5 nM
